Test results: patent US8394829B2, “Bi-functional quinoline analogs” (Gilead Sciences, Inc., priority 2010, dated 2013)

How the values were obtained:
Human recombinant PDE4B2 = target: T1, Human recombinant PDE4B2 (Homo sapiens, UniProt Q07343); assay: Inhibition of PDE4B4 enzyme activity (PDE Glo Assay); assay type: biochemical; settings: human recombinant PDE4B2, 50 nM cAMP; read-out: PDE4 IC50
T1 construct: purchased BPS Bioscience
Method: Biological Examples Inhibition of PDE4B4 Enzyme Activity
The inhibitory activity of test compounds were determined using the PDE Glo Assay (Promega, V1361). The PDE-Glo Reaction Buffer was prepared (1 mL 5× buffer+4 mL water) and 150 nM solution of test compound dissolved in the Reaction Buffer, followed by 1:3 serial dilutions into Reaction Buffer. […] Human recombinant PDE4B2 (BPS Bioscience) was added to test compound in Reaction Buffer at a concentration of 0.12 nM per reaction. The enzyme and test compound were pre-incubated together at rt for 10 min. 50 nM of the enzyme substrate cAMP was then added to initiate the enzyme reaction, with the reaction terminated after one hour. Termination Buffer (1 mL 5× termination buffer+3.9 mL water+100 μL of 100 mM IBMX (ICN Chemicals, in DMSO)), was added to each reaction well to terminate the reaction. Detection Buffer (1 mL 5×PDE-Glo Detection buffer+3.96 mL water+40 μL PKA (supplied in kit)) was added to the cAMP-enzyme-test compound mix and this secondary reaction proceeded for 20 minutes at rt. An equal volume of Kinase Glo Reagent was then added to the reaction mixture and after 10 min luminescence was measured using a luminometer (EnVision, 0.1 sec read for luminescence). Luminescence values were […] related to levels of cAMP in the reaction mixture. Data were plotted as relative light units (RLU) versus test compound concentration and the IC50 determined using GraphPad Prism 5.0, using a nonlinear curve fit in a single-site binding model.
IC50 determinations for the compounds presented above are seen in the first column of Table 1 (PDE4IC50).

[1] = target: T2, human recombinant beta-2 adrenoreceptors (Homo sapiens, UniProt P07550); assay: Beta-2 adrenoceptor binding assay ([3H](−)CGP-12177 displacement); settings: CHO cells expressing human beta-2 adrenoreceptors, [3H](−)CGP-12177 0.3 nM, 120 min
T2 construct: expressed in transfected cells; host or cells: CHO cells
T2 sequence (P07550 whole entry): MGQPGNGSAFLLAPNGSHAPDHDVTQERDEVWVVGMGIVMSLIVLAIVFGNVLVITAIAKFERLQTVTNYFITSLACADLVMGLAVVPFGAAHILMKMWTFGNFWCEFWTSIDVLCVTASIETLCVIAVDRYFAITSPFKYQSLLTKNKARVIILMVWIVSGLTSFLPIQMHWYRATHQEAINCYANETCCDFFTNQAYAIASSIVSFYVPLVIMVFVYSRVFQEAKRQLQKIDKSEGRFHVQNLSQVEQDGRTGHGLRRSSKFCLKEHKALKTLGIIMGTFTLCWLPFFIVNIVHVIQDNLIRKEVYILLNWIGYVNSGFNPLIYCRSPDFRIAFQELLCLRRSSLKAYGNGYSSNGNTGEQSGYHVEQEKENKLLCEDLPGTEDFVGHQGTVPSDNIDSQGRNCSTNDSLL
Method: Beta-2 Adrenoceptor Binding Assay
Test compounds were incubated for 120 min with Chinese hamster oocyte (CHO) cells expressing the human recombinant beta-2 adrenoreceptors. Binding of test compounds to the beta-2 adrenoreceptors was determined by measuring the displacement of the radiolabeled ligand [^3H](−)CGP-12177 (0.3 nM) from the receptor measured by a scintillation counting. Concentration response curves were generated for test compounds and the IC50 (molar concentration of the compound which produced 50% inhibition for the maximal response for that compound) was determined. These assays were performed using a protocol based on the original description of the assay by Joseph et al., (2004) Naun.-Sch. Arch. Pharm.; 369:525-532.
IC50 determinations for the compounds presented above are seen in the second column of Table 1 (Beta 2 IC50).

[2] = target: T2, human recombinant beta-2 adrenoreceptors; assay: Functional agonism of human recombinant beta-2 adrenoreceptors expressed in CHO cells (cAMP HTRF); assay type: cell-based; settings: CHO cells expressing human beta-2 adrenoreceptors, cAMP elevation, 30 min
Method: Functional Agonism of Human Recombinant Beta-2 Adrenoreceptors Expressed in Chinese Hamster Oocytes (CHO)
Test compounds were incubated for 30 min with CHO cells expressing the human recombinant beta-2 adrenoreceptors. Agonism of the receptor was measured by the elevation of intracellular cyclic-AMP over control levels detected using a homogeneous time resolved fluorescence (HTRF) format. Compounds were determined to be “full” or “partial” agonists based on the maximum level of cAMP accumulated compared to the control compound isoproterenol which is a full agonist in this assay system. Concentration response curves were generated for test compounds and the EC50 (molar concentration of the agonist which produced 50% of the maximal response for that compound) was determined. These assays were performed using a protocol based on the original description of the assay by Baker, J. G. (2005) Brit. J. Pharmacol.; 144:317-322.
EC50 determinations for the compounds presented above are seen in the third column of Table 1 (Beta 2 EC50).

[3] = test system: LPS-induced TNF-α release from human peripheral blood mononuclear cells (PBMC); assay: Inhibition of LPS-induced TNF-α release from human PBMC; assay type: cell-based; settings: LPS 0.4 ng/mL, 6 h, presence or absence of ICI-118551 not given
Source text: Inhibition of Lipopolysaccharide (LPS)-Induced Tumour Necrosis Factor Alpha (TNF-α) Release from Human Peripheral Blood Mononuclear Cells (PBMC)
Human whole blood was drawn from donors and cell purification initiated within two hours. Peripheral blood mononuclear cells (PBMC) were purified using a standard Ficoll gradient purification technique and aliquoted at a concentration of 100,000 cells/well in 96 well plates. Beta-2 adrenoreceptor agonists are also anti-inflammatory for some immune cells expressing the receptor and in this assay they can inhibit tumor necrosis factor-alpha (TNF-α) production. Therefore PBMC were pre-incubated for 30 min in the presence of the beta-2 adrenoreceptor antagonist ICI-118551 [3-(isopropylamino)-1-[(7-methyl-4-indanyl)oxy]butan-2-ol] (10 μM) to determine the PDE4 directed activity of test compounds, and in the absence of ICI-118551 for the combined PDE4 and beta-2 receptor directed activity. Test compounds were dissolved in DMSO and diluted in buffer (final DMSO concentration of 0.1% v/v) and were then added to the cell suspensions and pre-incubated for a further 1 h at 37° C. LPS solution was then added (0.4 ng/mL) and the cells incubated for a further 6 h. At the end of the incubation period the cell supernatants were collected and TNF-α was measured using a Procarta Cytokine Assay Kit (Affymetrix, Santa Clara, Calif.) according to the manufacturers' instructions. Data were analyzed using MiraiBio Masterplex QT v4.0 software (MasterPlex Version 1.0.1.18 Copyright 2008, Hitachi Software Engineering Co., Ltd) and used to extrapolate Mean Fluorescence Intensity (MFI) into concentrations of TNF-α and mean values from replicate wells were determined. Inhibition curves were plotted using a nonlinear curve fit employing a single-site binding model to determine the IC50 value for each test compound in the presence or absence of ICI-118551 using GraphPad Prism 5 for Windows, version 5.02 (GraphPad Software, San Diego Calif.).
EC50 determinations for the compounds presented above are seen in the fourth column of Table 1 (PBMC TNF EC50).

T1 sequence (Q07343 1-564 isoform Q07343-2): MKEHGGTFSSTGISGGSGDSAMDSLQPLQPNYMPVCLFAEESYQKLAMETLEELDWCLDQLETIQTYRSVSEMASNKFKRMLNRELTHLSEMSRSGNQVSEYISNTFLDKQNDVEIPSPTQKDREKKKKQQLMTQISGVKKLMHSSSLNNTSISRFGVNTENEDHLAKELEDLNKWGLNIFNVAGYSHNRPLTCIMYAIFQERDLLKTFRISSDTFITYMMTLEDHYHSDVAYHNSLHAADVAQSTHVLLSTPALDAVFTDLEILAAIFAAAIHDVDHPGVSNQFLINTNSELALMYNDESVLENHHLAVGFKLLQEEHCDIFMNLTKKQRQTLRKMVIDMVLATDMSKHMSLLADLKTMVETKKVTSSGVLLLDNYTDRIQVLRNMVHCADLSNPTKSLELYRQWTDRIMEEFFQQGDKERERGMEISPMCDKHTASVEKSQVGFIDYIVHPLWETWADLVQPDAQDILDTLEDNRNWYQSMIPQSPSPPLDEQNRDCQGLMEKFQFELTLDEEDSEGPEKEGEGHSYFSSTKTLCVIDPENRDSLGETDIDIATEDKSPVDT

SMILES | IC50 (Human recombinant PDE4B2) | IC50 [1] | EC50 [2] | EC50 [3]
COc1cccc(Nc2c(C(N)=O)cnc3c(C)cc(S(=O)(=O)c4cccc(C(=O)NCCCCCCNC[C@H](O)c5ccc(O)c6[nH]c(=O)ccc56)c4)cc23)c1 [Example 2, (R)-6-[[3-[[6-[[2-Hydroxy-2-(8-hydroxy-2-oxo-1,2-dihydroquinolin-5-yl)ethyl]amino]hexyl]carbamoyl]phenyl]sulfonyl]-4-((3-methoxyphenyl)amino]-8-methylquinoline-3-carboxamide] | < 100 nM | < 100 nM | < 100 nM | < 100 nM
COc1cccc(Nc2c(C(N)=O)cnc3c(C)cc(S(=O)(=O)c4cccc(C(=O)N5CCC(NC[C@H](O)c6ccc(O)c7[nH]c(=O)ccc67)CC5)c4)cc23)c1 [Example 3, (R)-6-[[3-[[4-[[2-Hydroxy-2-(8-hydroxy-2-oxo-1,2-dihydroquinolin-5-yl)ethyl]amino]piperidine-1-yl]carbonyl)phenyl]sulfonyl]-4-[(3-methoxyphenyl)amino]-8-methylquinoline-3-carboxamide] | < 100 nM | > 300 nM | < 100 nM | < 100 nM
COc1cccc(Nc2c(C(N)=O)cnc3c(C)cc(S(=O)(=O)c4cccc(C(=O)Nc5ccc(C#CCCCCNC[C@H](O)c6ccc(O)c7[nH]c(=O)ccc67)cc5)c4)cc23)c1 [Example 7, (R)-6-((3-((4-(6-((2-hydroxy-2-(8-hydroxy-2-oxo-1,2-dihydroquinolin-5-yl)ethyl)amino)hex-1-yn-1-yl)phenyl)carbamoyl)phenyl)sulfonyl)-4-((3-methoxyphenyl)amino)-8-methylquinoline-3-carboxamide] | < 100 nM | < 100 nM | < 100 nM | < 100 nM
COc1cccc(Nc2c(C(N)=O)cnc3c(C)cc(S(=O)(=O)c4cccc(C(=O)Nc5ccc(C#CCCCN(C)C[C@H](O)c6ccc(O)c7[nH]c(=O)ccc67)cc5)c4)cc23)c1 [Example 8, (R)-6-((3-((4-(5-((2-hydroxy-2-(8-hydroxy-2-oxo-1,2-dihydroquinolin-5-yl)ethyl)(methyl)amino)pent-1-yn-1-yl)phenyl)carbamoyl)phenyl)sulfonyl)-4-((3-methoxyphenyl)amino)-8-methylquinoline-3-carboxamide] | < 100 nM | > 300 nM | > 300 nM | < 100 nM
COc1cccc(Nc2c(C(N)=O)cnc3c(C)cc(S(=O)(=O)c4cccc(C(=O)Nc5cccc(C#CCCCNC[C@H](O)c6ccc(O)c7[nH]c(=O)ccc67)c5)c4)cc23)c1 [Example 9, (R)-6-((3-((3-(5-((2-hydroxy-2-(8-hydroxy-2-oxo-1,2-dihydroquinolin-5-yl)ethyl)amino)pent-1-yn-1-yl)phenyl)carbamoyl)phenyl)sulfonyl)-4-((3-methoxyphenyl)amino)-8-methylquinoline-3-carboxamide] | < 100 nM | < 100 nM | < 100 nM | < 100 nM
COc1cccc(Nc2c(C(N)=O)cnc3c(C)cc(S(=O)(=O)c4cccc(C(=O)Nc5ccc(CCCCCNC[C@H](O)c6ccc(O)c7[nH]c(=O)ccc67)cc5)c4)cc23)c1 [Example 10, (R)-6-[[3-[[4-[5-[[2-Hydroxy-2-(8-hydroxy-2-oxo-1,2-dihydroquinolin-5-yl)ethyl]amino]pentyl]phenyl]carbamoyl]phenyl]sulfonyl]-4-[(3-methoxyphenyl)amino]-8-methylquinoline-3-carboxamide 2,2,2-trifluoroacetate] | < 100 nM | < 100 nM | < 100 nM | < 100 nM
COc1cccc(Nc2c(C(N)=O)cnc3c(C)cc(S(=O)(=O)c4cccc(C(=O)N5CCN(CCNC[C@H](O)c6ccc(O)c7[nH]c(=O)ccc67)CC5)c4)cc23)c1 [Example 11, 6-[3-[[4-[2-[[2-Hydroxy-2-(8-hydroxy-2-oxo-1,2-dihydroquinolin-5-yl)ethyl]amino]ethyl]piperazine-1-yl]carbonyl]benzenesulfonyl]-4-(3-methoxyphenylamino)-8-methylquinoline-3-carboxyamide] | < 100 nM | < 100 nM | < 100 nM | < 100 nM
COc1cccc(Nc2c(C(N)=O)cnc3c(C)cc(S(=O)(=O)c4cccc(C(=O)Nc5ccc(CCNC[C@H](O)c6ccc(O)c7[nH]c(=O)ccc67)cc5)c4)cc23)c1 [Example 12, (R)-6-[[3-[[4-[2-[[2-Hydroxy-2-(8-hydroxy-2-oxo-1,2-dihydroquinolin-5-yl)ethyl]amino]ethyl]phenyl]carbamoyl]phenyl]sulfonyl]-4-[(3-methoxyphenyl)amino]-8-methylquinoline-3-carboxamide] | < 100 nM | < 100 nM | < 100 nM | < 100 nM
COc1cccc(Nc2c(C(N)=O)cnc3c(C)cc(S(=O)(=O)c4cccc(CN(C)C(=O)c5cccc(CC(C)NC[C@H](O)c6ccc(O)c7[nH]c(=O)ccc67)c5)c4)cc23)c1 (stereo partly drawn) [Example 13, 6-[[3-[[3-[2-[[(R)-2-Hydroxy-2-(8-hydroxy-2-oxo-1,2-dihydroquinolin-5-yl)ethyl]amino]propyl]-N-methylbenzamido]methyl]phenyl]sulfonyl]-4-[(3-methoxyphenyl)amino]-8-methylquinoline-3-carboxamide] | < 100 nM | < 100 nM | < 100 nM | < 100 nM
COc1cccc(Nc2c(C(N)=O)cnc3c(C)cc(S(=O)(=O)c4cccc(C(=O)N(C)CCCCCCNC[C@H](O)c5ccc(O)c6[nH]c(=O)ccc56)c4)cc23)c1 [Example 14] | < 100 nM | > 300 nM | > 300 nM | < 100 nM
COc1cccc(Nc2c(C(N)=O)cnc3c(C)cc(S(=O)(=O)c4cccc(C(=O)N5CCC(OCCCCCCNC[C@H](O)c6ccc(O)c7[nH]c(=O)ccc67)CC5)c4)cc23)c1 [Example 15, (R)-6-((3-(4-((6-((2-hydroxy-2-(8-hydroxy-2-oxo-1,2-dihydroquinolin-5-yl)ethyl)amino)hexyl)oxy)piperidine-1-carbonyl)phenyl)sulfonyl)-4-((3-methoxyphenyl)amino)-8-methylquinoline-3-carboxamide] | < 100 nM | < 100 nM | < 100 nM | < 100 nM
